Source: patent US6630128B1, “Porphyrin derivatives their use in photodynamic therapy and medical devices containing them” (Destiny Pharma Limited, priority 1999, dated 2003)

Columns and labels:
[1] = Singlet oxygen quantum yields (singlet oxygen phosphorescence at 1270 nm); assay type: physicochemical; details: aerated toluene, excitation 355 nm, 20-23° C., relative to TPP ΦΔ=0.58
Method: The singlet oxygen quantum yields were determined by the direct measurement of singlet oxygen phosphorescence at 1270 nm. Samples were excited using the third harmonic of a Q-switched Nd:YAG (neodymium: yttrium-aluminium-garnet) Spectra Physics GCR-150-10 laser, operating at an excitation wavelength of 355 nm. A small fraction of the laser output was passed through a solution state filter containing aqueous cobalt (II) sulphate (CoSO4) to remove residual 532 and 1064 nm radiation and then down a 8 mm diameter liquid light guide (Oriel). For the measurements the end of the light guide was held against a 1 cm×1 cm fluorescence cuvette (Hellma) holding the sample. During the course of the experiments the incident laser energy for each measurement was determined using a pyroelectric detector held behind the sample. This detector was calibrated at the start of the experiment using a second calibrated energy meter (Gentec ED100). The laser energy was adjusted by placing cells containing aqueous sodium nitrite between the CoSO4 filter and the light guide. Typical pulse energies used were in the range of 25-500 μJ per pulse. Shot to shot noise was estimated to be <10% and sets of 20 shots gave an average value within <3%.
Phosphorescence from the sample was collected and passed through an interference filter centred at 1270 nm available from (Infra Red Engineering Ltd) and then focused onto the active area of a liquid nitrogen cooled germanium photodiode (North Coast EO-817P). The output from this device was AC coupled to a digital oscilloscope (Tektronix TDS-320) which digitised and averaged the transients. Typically 20 laser shots were used for each sample. The averaged data was transferred to a PC where it was stored and analysed.
A stock solution of each of the title compounds of Examples 67 to 81 was prepared by dissolving a small sample of the respective title compound in approximately 5 ml of toluene (Fisher Scientific, Analytical grade). The exact concentrations of the stock solution was not determined.
A working solution of each of the title compounds of Examples 67 to 81 was prepared by diluting the respective stock solution with toluene to give an absorbance of 0.100±0.005 at 355 nm when placed in a ultraviolet/visible spectrometer (ATI-Unicam UV-2) compared to a reference cell containing the pure toluene solvent. The ultraviolet/visible spectrum of each sample was also recorded over the range 300-700 nm.
All of the data were recorded at ambient temperature, 20-23° C., and the solutions were aerated. The singlet oxygen emission decay was recorded for each sample using 5 laser energies and the data for each measurement were fitted to an exponential decay of the form I(t)=A.exp(−t/τ), where I(t) is the measured intensity of singlet oxygen phosphorescence at time t, A is the intensity extrapolated back to t=0 (ie when the laser fires), and τ is the lifetime of singlet oxygen. A typical decay for the title compound of Example 78 in toluene excited at 355 nm using a pulse energy of 365 μJ, where A=19.6 and τ=27.8 μs, is shown in FIG. 2.
A plot of A versus the incident laser energy was drawn for each sample and the slope determined. The slope of such a graph is proportional to the singlet oxygen quantum yield. An example of a plot showing the linear relationship between the singlet oxygen emission intensity and the laser energy for the title compound of Example 78 and meso-tetraphenylporphyrin (TPP) is shown in FIG. 3.
The experiments were carried out using batches of 5 samples of the working solution of each of the title compounds of 67 to 81 plus one reference sample meso-tetraphenylporphyrin (TPP). Each run was repeated at least once. The data sets obtained for each sample were within ±5% of the mean value.
The dominant sources of error in the experiment include the shot-to-shot fluctuations in the laser and the difference in absorbances of the samples at the excitation wavelength. The values have an error of ±10%. […]

[2] = Fluorescence quantum yields (corrected emission spectra, relative to TPP); assay type: physicochemical; details: excitation wavelength 355 nm, emission 550-800 nm
Method: Mass spectra were recorded on a Finnigan MAT TSQ 700 triple quadrupole mass spectrometer equipped with an […]. The matrix-assisted laser desorption/ionization mass spectra of the porphyrins were obtained using a dithranol matrix. FAB-MS spectra were obtained using a 3-nitrobenzyl alcohol (NOBA) matrix. ^1H-NMR spectra were measured at 60 MHz on a Jeol JNM-PMX60 spectrometer, at 270 MHz on a Jeol EX 270 spectrometer and at 300 MHx on a Varian Gemini-300 spectrometer in CDCl3 using TMS as an internal reference. Ultraviolet/visible spectra of solutions of compounds in tetrahydrofuran (THF) or toluene were measured using a Hitachi U-3000 spectrophotometer or a ATI-Unicam UV-2 spectrophotometer. Reflectance-absorbance infra red (RAIR) spectra were recorded on a BIO-RAD FTS 165 spectrophotometer. Fluorescence emission spectra were recorded using a Spex Fluorolog 3 spectrophotometer at an excitation wavelength of 355 nm, emission at 550 to 800 nm, with a bandpass of 2 nm.
The emission spectra were recorded using a Spex Fluorolog 3, excitation wavelength=355 nm, emission 550-800 nm, with a bandpass of 2 nm. A spectrum was recorded for each of the title compounds of Examples 67 to 81.
The fluorescence quantum yield for each of the title compounds of Examples 67 to 81 was determined by measuring the integral of the corrected emission spectra for each compound and calculated relative to TPP=0.11 (Handbook of Photochemistry Ed 2, Murov, Carmichael and Hug, Dekker 1993). The fluorescence quantum yield for each of the title compounds of Examples 67 to 81 are listed in Table 1; values for Zn TPP and Mg TPP are included in Table 1 for reference but they were not measured in this work.

| Molecule | Quantum yield of fluorescence, relative to TPP = 0.11 [2] | ΦΔ (singlet oxygen quantum yield) [1] |
| --- | --- | --- |
| 5,5′-{4,4′-[12,12′-Dithiobis-(dodecyloxy)-phenyl]}-10,10′,15,15′,20,20′-hexakis-(3,4,5-tridecyloxy-phenyl)-diporphyrinato Magnesium [Example 68] | 0.10 | 0.39 ± 0.04 |
| 5,5′-{4,4′-[12,12′-Dithiobis-(dodecyloxy)-phenyl]}-10,10′,15,15′,20,20′-hexakis-(3,4,5-tridecyloxy-phenyl)-diporphyrinato Zinc [Example 67] | 0.04 | 0.65 ± 0.07 |
| 5-[4-(6-but-3-Enyloxy-hexyloxy)-phenyl]-10,15,20-tris-(3,4,5-tridecyloxy-phenyl)-porphyrinato Zinc [Example 70] | 0.04 | 0.75 ± 0.07 |
| 5-[4-(6-but-3-Enyloxy-hexyloxy)-phenyl]-10,15,20-tris-(3,5-didecyloxy-phenyl)-porphyrinato Zinc [Example 79] | 0.04 | 0.76 ± 0.08 |
| 5-[4-(12-but-3-Enyloxy-dodecyloxy)-phenyl]-10,15,20-tris-(3,4,5-trihexyloxy-phenyl)-porphyrinato Zinc [Example 72] | 0.04 | 0.71 ± 0.07 |
| 5-[4-(12-but-3-Enyloxy-dodecyloxy)-phenyl]-10,15,20-tris-(3,5-didecyloxy-phenyl)-porphyrinato Zinc [Example 80] | 0.04 | 0.75 ± 0.07 |
| 5-[4-(12-but-3-Enyloxy-dodecyloxy)-phenyl]-10,15,20-tris-(3,5-dihexadecyloxy-phenyl)-porphyrinato Zinc [Example 81] | 0.04 | 0.70 ± 0.07 |
| C=CCCOCCCCCCOc1ccc(-c2c3nc(c(-c4cc(OCCCCCC)c(OCCCCCC)c(OCCCCCC)c4)c4ccc([n-]4)c(-c4cc(OCCCCCC)c(OCCCCCC)c(OCCCCCC)c4)c4nc(c(-c5cc(OCCCCCC)c(OCCCCCC)c(OCCCCCC)c5)c5ccc2[n-]5)C=C4)C=C3)cc1.[Zn+2] [Example 69, 5-[4-(6-but-3-Enyloxy-hexyloxy)-phenyl]-10,15,20-tris-(3,4,5-trihexyloxy-phenyl)-porphyrinato Zinc] | 0.04 | 0.71 ± 0.07 |
| C=CCCOCCCCCCOc1ccc(-c2c3nc(c(-c4cc(OCCCCCCCCCCCCCCCC)c(OCCCCCCCCCCCCCCCC)c(OCCCCCCCCCCCCCCCC)c4)c4ccc([n-]4)c(-c4cc(OCCCCCCCCCCCCCCCC)c(OCCCCCCCCCCCCCCCC)c(OCCCCCCCCCCCCCCCC)c4)c4nc(c(-c5cc(OCCCCCCCCCCCCCCCC)c(OCCCCCCCCCCCCCCCC)c(OCCCCCCCCCCCCCCCC)c5)c5ccc2[n-]5)C=C4)C=C3)cc1.[Zn+2] [Example 71, 5-[4-(6-but-3-Enyloxy-hexyloxy)-phenyl]-10,15,20-tris-(3,4,5-trihexadecyloxy-phenyl)-porphyrinato Zinc] | 0.04 | 0.72 ± 0.07 |

Continued, in another order:

| Quantum yield of fluorescence, relative to TPP = 0.11 [2] | Molecule | ΦΔ (singlet oxygen quantum yield) [1] |
| --- | --- | --- |
| 0.04 | C=CCCOCCCCCCCCCCCCOc1ccc(-c2c3nc(c(-c4cc(OCCCCCCCCCC)c(OCCCCCCCCCC)c(OCCCCCCCCCC)c4)c4ccc([n-]4)c(-c4cc(OCCCCCCCCCC)c(OCCCCCCCCCC)c(OCCCCCCCCCC)c4)c4nc(c(-c5cc(OCCCCCCCCCC)c(OCCCCCCCCCC)c(OCCCCCCCCCC)c5)c5ccc2[n-]5)C=C4)C=C3)cc1.[Zn+2] [Example 73, 5-[4-(12-but-3-Enyloxy-dodecyloxy)-phenyl]-10,15,20-tris-(3,4,5-tridecyloxy-phenyl)-porphyrinato Zinc] | 0.71 ± 0.07 |
| 0.04 | C=CCCOCCCCCCCCCCCCOc1ccc(-c2c3nc(c(-c4cc(OCCCCCCCCCCCCCCCC)c(OCCCCCCCCCCCCCCCC)c(OCCCCCCCCCCCCCCCC)c4)c4ccc([n-]4)c(-c4cc(OCCCCCCCCCCCCCCCC)c(OCCCCCCCCCCCCCCCC)c(OCCCCCCCCCCCCCCCC)c4)c4nc(c(-c5cc(OCCCCCCCCCCCCCCCC)c(OCCCCCCCCCCCCCCCC)c(OCCCCCCCCCCCCCCCC)c5)c5ccc2[n-]5)C=C4)C=C3)cc1.[Zn+2] [Example 74, 5-[4-(12-but-3-Enyloxy-dodecyloxy)-phenyl]-10,15,20-tris-(3,4,5-trihexadecyloxy-phenyl)-porphyrinato Zinc] | 0.71 ± 0.07 |
| 0.04 | C=CCCOCCCCCCCCCCCCCCCCOc1ccc(C2=c3ccc4[n]3[Zn][n]3c(ccc3C(c3cc(OCCCCCCCCCC)c(OCCCCCCCCCC)c(OCCCCCCCCCC)c3)=C3C=CC(=N3)C=4c3cc(OCCCCCCCCCC)c(OCCCCCCCCCC)c(OCCCCCCCCCC)c3)C(c3cc(OCCCCCCCCCC)c(OCCCCCCCCCC)c(OCCCCCCCCCC)c3)=C3C=CC2=N3)cc1 [Example 75, 5-[4-(16-but-3-Enyloxy-hexadecyloxy)-phenyl]-10,15,20-tris-(3,4,5-tridecyloxy-phenyl)-porphyrinato Zinc] | 0.71 ± 0.07 |
| 0.03 | C=CCCOCCCCCCCCCCCCCCCCOc1ccc(-c2c3nc(c(-c4cc(OCCCCCCCCCCCCCCCC)c(OCCCCCCCCCCCCCCCC)c(OCCCCCCCCCCCCCCCC)c4)c4ccc([n-]4)c(-c4cc(OCCCCCCCCCCCCCCCC)c(OCCCCCCCCCCCCCCCC)c(OCCCCCCCCCCCCCCCC)c4)c4nc(c(-c5cc(OCCCCCCCCCCCCCCCC)c(OCCCCCCCCCCCCCCCC)c(OCCCCCCCCCCCCCCCC)c5)c5ccc2[n-]5)C=C4)C=C3)cc1.[Zn+2] [Example 76, 5-[4-(16-but-3-Enyloxy-hexadecyloxy)-phenyl]-10,15,20-tris-(3,4,5-trihexadecyloxy-phenyl)-porphyrinato Zinc] | 0.66 ± 0.07 |
| 0.14 | C=CCCOCCCCCCOc1ccc(-c2c3nc(c(-c4cc(OCCCCCCCCCC)c(OCCCCCCCCCC)c(OCCCCCCCCCC)c4)c4ccc([n-]4)c(-c4cc(OCCCCCCCCCC)c(OCCCCCCCCCC)c(OCCCCCCCCCC)c4)c4nc(c(-c5cc(OCCCCCCCCCC)c(OCCCCCCCCCC)c(OCCCCCCCCCC)c5)c5ccc2[n-]5)C=C4)C=C3)cc1.[Mg+2] [Example 77, 5-[4-(6-but-3-Enyloxy-hexyloxy)-phenyl]-10,15,20-tris-(3,4,5-tridecyloxy-phenyl)-porphyrinato Magnesium] | 0.51 ± 0.05 |
